Measured values from the supplement of paper PMC10307832.

What was measured:
Assay in all cases: relative viability (nuclei count vs DMSO), 5 days (fraction); higher = more cells survive
[1] = compound: O=c1[nH]cc(F)c(=O)[nH]1 [5-Fluorouracil] + CC(=O)Nc1cccc(-n2c(=O)n(C3CC3)c(=O)c3c(Nc4ccc(I)cc4F)n(C)c(=O)c(C)c32)c1 [Trametinib] (partner 0.02 µM)
Outline: (§1)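 Medians of duplicate plates are given as relative viability. That measure is the nuclei count in treated wells divided by the count in vehicle wells. Counts were taken on 4× images of lung cancer cell lines in 1536-well plates, 5 days after pin-tool dosing the day after seeding with one drug alone or a fixed anchor-drug dose plus five library-drug doses (not always all listed) in √10 steps.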

[2] = compound: CN[C@@H]1C[C@H]2O[C@@](C)([C@@H]1OC)n1c3ccccc3c3c4c(c5c6ccccc6n2c5c31)C(=O)NC4 [Staurosporine] + COc1cc2c(Oc3ccc(NC(=O)C4(C(=O)Nc5ccc(F)cc5)CC4)cc3F)ccnc2cc1OCCCN1CCOCC1 [Foretinib] (partner 0.25 µM)
Outline: as §1

[3] = compound: CN[C@@H]1C[C@H]2O[C@@](C)([C@@H]1OC)n1c3ccccc3c3c4c(c5c6ccccc6n2c5c31)C(=O)NC4 [Staurosporine] + C[C@@H](Oc1cc(-c2cnn(C3CCNCC3)c2)cnc1N)c1c(Cl)ccc(F)c1Cl [Crizotinib] (partner 1 µM)
Outline: as §1

Staurosporine + Olaparib = compound: CN[C@@H]1C[C@H]2O[C@@](C)([C@@H]1OC)n1c3ccccc3c3c4c(c5c6ccccc6n2c5c31)C(=O)NC4 [Staurosporine] + O=C(c1cc(Cc2n[nH]c(=O)c3ccccc23)ccc1F)N1CCN(C(=O)C2CC2)CC1 [Olaparib] (partner 8 µM)
Outline: as §1

UMC-11
relative viability ([1]; first compound 0.02 µM): 0.711
relative viability ([1]; first compound 0.2 µM): 0.673
relative viability ([1]; first compound 0.6325 µM): 0.448
relative viability ([2]; first compound 0.005 µM): 1.02
relative viability ([2]; first compound 0.01581 µM): 0.574
relative viability ([2]; first compound 0.05 µM): 0.326
relative viability ([2]; first compound 0.1581 µM): 0.116
relative viability ([2]; first compound 0.5 µM): 0.077
relative viability ([3]; first compound 0.005 µM): 0.544
relative viability ([3]; first compound 0.01581 µM): 0.406
relative viability ([3]; first compound 0.05 µM): 0.207
relative viability ([3]; first compound 0.1581 µM): 0.0703
relative viability ([3]; first compound 0.5 µM): 0.0402
relative viability (Staurosporine + Olaparib; first compound 0.005 µM): 0.375
relative viability (Staurosporine + Olaparib; first compound 0.01581 µM): 0.212
relative viability (Staurosporine + Olaparib; first compound 0.05 µM): 0.154
relative viability (Staurosporine + Olaparib; first compound 0.1581 µM): 0.0879
relative viability (Staurosporine + Olaparib; first compound 0.5 µM): 0.0921
